PubChem BioAssay AID2060908 (Molecular Pharmacology Branch, DTP, NCI, 2025)

Tested on: 186277-243-T-J2-PDC complex spheroids, viability
Experiment: Anticancer human tumor 186277-243-T-J2-PDC patient-derived colon adenocarcinoma cell line growth inhibition [RAS]
Conditions: for IC50: curve of first compound; for viability, T/C: stronger effect = lower value
Procedure, shortened: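 Agents were tested in combination matrices in half-log decrements from a top concentration at or near clinical Cmax (10 microM if undetermined). Targets were multi-cell spheroids of tumour lines plus HUVEC and MSC stromal cells.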

[1] = second compound 0.000949 µM, first compound 0.0316 µM
[2] = second compound 0.000949 µM, first compound 0.1 µM
[3] = second compound 0.000949 µM, first compound 0.316 µM
[4] = second compound 0.000949 µM, first compound 1 µM
[5] = second compound 0.000949 µM, first compound 3.16 µM
[6] = second compound 0.000949 µM, first compound 10 µM
[7] = second compound 0.003 µM, first compound 0.0316 µM
[8] = second compound 0.003 µM, first compound 0.1 µM
[9] = second compound 0.003 µM, first compound 0.316 µM
[10] = second compound 0.003 µM, first compound 1 µM
[11] = second compound 0.003 µM, first compound 3.16 µM
[12] = second compound 0.003 µM, first compound 10 µM
[13] = second compound 0.00949 µM, first compound 0.0316 µM
[14] = second compound 0.00949 µM, first compound 0.1 µM
[15] = second compound 0.00949 µM, first compound 0.316 µM
[16] = second compound 0.00949 µM, first compound 1 µM
[17] = second compound 0.00949 µM, first compound 3.16 µM
[18] = second compound 0.00949 µM, first compound 10 µM
[19] = second compound 0.03 µM, first compound 0.0316 µM
[20] = second compound 0.03 µM, first compound 0.1 µM
[21] = second compound 0.03 µM, first compound 0.316 µM
[22] = second compound 0.03 µM, first compound 1 µM
[23] = second compound 0.03 µM, first compound 3.16 µM
[24] = second compound 0.03 µM, first compound 10 µM
[25] = second compound 0.0949 µM, first compound 0.0316 µM
[26] = second compound 0.0949 µM, first compound 0.1 µM
[27] = second compound 0.0949 µM, first compound 0.316 µM
[28] = second compound 0.0949 µM, first compound 1 µM
[29] = second compound 0.0949 µM, first compound 3.16 µM
[30] = second compound 0.0949 µM, first compound 10 µM
[31] = second compound 0.3 µM, first compound 0.0316 µM
[32] = second compound 0.3 µM, first compound 0.1 µM
[33] = second compound 0.3 µM, first compound 0.316 µM
[34] = second compound 0.3 µM, first compound 1 µM
[35] = second compound 0.3 µM, first compound 3.16 µM
[36] = second compound 0.3 µM, first compound 10 µM
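Further: spheroids exposed to compounds for 7 days before viability read.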

SMILES: CC(C)NCC(C(=O)N1CCN(c2ncnc3c2C(C)CC3O)CC1)c1ccc(Cl)cc1 (stereo unspecified) + CCn1c(-c2cccnc2C(C)OC)c2c3cc(ccc31)N1CCOC(CC(NC(=O)C(C(C)C)N(C)C(=O)C3(F)CCN(C(=O)C#CC(C)(C)N(C)C)CC3)C(=O)N3CCCC(N3)C(=O)OCC(C)(C)C2)C1
- IC50 (second compound 0.000949 µM): 1900 nM
- IC50 (second compound 0.003 µM): 1870 nM
- IC50 (second compound 0.00949 µM): 2290 nM
- IC50 (second compound 0.03 µM): 1380 nM
- IC50 (second compound 0.0949 µM): 726 nM
- IC50 (second compound 0.3 µM): 349 nM
- viability, T/C [1]: 88.1%
- viability, T/C [2]: 96.7%
- viability, T/C [3]: 108%
- viability, T/C [4]: 69%
- viability, T/C [5]: 40.5%
- viability, T/C [6]: 29.4%
- viability, T/C [7]: 83.4%
- viability, T/C [8]: 83.4%
- viability, T/C [9]: 88.2%
- viability, T/C [10]: 62.8%
- viability, T/C [11]: 39.9%
- viability, T/C [12]: 29.4%
- viability, T/C [13]: 90.2%
- viability, T/C [14]: 82.8%
- viability, T/C [15]: 89.2%
- viability, T/C [16]: 67%
- viability, T/C [17]: 43.9%
- viability, T/C [18]: 28%
- viability, T/C [19]: 104%
- viability, T/C [20]: 95.8%
- viability, T/C [21]: 108%
- viability, T/C [22]: 57.3%
- viability, T/C [23]: 36.6%
- viability, T/C [24]: 25.3%
- viability, T/C [25]: 99%
- viability, T/C [26]: 106%
- viability, T/C [27]: 72%
- viability, T/C [28]: 40.6%
- viability, T/C [29]: 34.7%
- viability, T/C [30]: 18.7%
- viability, T/C [31]: 99.2%
- viability, T/C [32]: 83.3%
- viability, T/C [33]: 51.8%
- viability, T/C [34]: 27.9%
- viability, T/C [35]: 20.4%
- viability, T/C [36]: 15.8%

SMILES: CC(C)n1nc(-c2ccc3oc(N)nc3c2)c2c(N)ncnc21 + CCn1c(-c2cccnc2C(C)OC)c2c3cc(ccc31)N1CCOC(CC(NC(=O)C(C(C)C)N(C)C(=O)C3(F)CCN(C(=O)C#CC(C)(C)N(C)C)CC3)C(=O)N3CCCC(N3)C(=O)OCC(C)(C)C2)C1
- IC50 (second compound 0.000949 µM): 60.3 nM
- IC50 (second compound 0.003 µM): 76 nM
- IC50 (second compound 0.00949 µM): 59 nM
- IC50 (second compound 0.03 µM): 56.9 nM
- IC50 (second compound 0.0949 µM): 41.2 nM
- IC50 (second compound 0.3 µM): 24.9 nM
- viability, T/C (second compound 0.000949 µM, first compound 0.000316 µM): 115%
- viability, T/C (second compound 0.000949 µM, first compound 0.001 µM): 98.1%
- viability, T/C (second compound 0.000949 µM, first compound 0.00316 µM): 98.5%
- viability, T/C (second compound 0.000949 µM, first compound 0.01 µM): 100%
- viability, T/C [1]: 70.6%
- viability, T/C [2]: 33.7%
- viability, T/C (second compound 0.003 µM, first compound 0.000316 µM): 88%
- viability, T/C (second compound 0.003 µM, first compound 0.001 µM): 99%
- viability, T/C (second compound 0.003 µM, first compound 0.00316 µM): 97.1%
- viability, T/C (second compound 0.003 µM, first compound 0.01 µM): 92.2%
- viability, T/C [7]: 79.6%
- viability, T/C [8]: 40.5%
- viability, T/C (second compound 0.00949 µM, first compound 0.000316 µM): 90.1%
- viability, T/C (second compound 0.00949 µM, first compound 0.001 µM): 115%
- viability, T/C (second compound 0.00949 µM, first compound 0.00316 µM): 93%
- viability, T/C (second compound 0.00949 µM, first compound 0.01 µM): 94.1%
- viability, T/C [13]: 69.3%
- viability, T/C [14]: 33.6%
- viability, T/C (second compound 0.03 µM, first compound 0.000316 µM): 106%
- viability, T/C (second compound 0.03 µM, first compound 0.001 µM): 107%
- viability, T/C (second compound 0.03 µM, first compound 0.00316 µM): 92.7%
- viability, T/C (second compound 0.03 µM, first compound 0.01 µM): 90.2%
- viability, T/C [19]: 70.3%
- viability, T/C [20]: 31.2%
- viability, T/C (second compound 0.0949 µM, first compound 0.000316 µM): 103%
- viability, T/C (second compound 0.0949 µM, first compound 0.001 µM): 98.4%
- viability, T/C (second compound 0.0949 µM, first compound 0.00316 µM): 105%
- viability, T/C (second compound 0.0949 µM, first compound 0.01 µM): 95.4%
- viability, T/C [25]: 55.8%
- viability, T/C [26]: 31%
- viability, T/C (second compound 0.3 µM, first compound 0.000316 µM): 101%
- viability, T/C (second compound 0.3 µM, first compound 0.001 µM): 100%
- viability, T/C (second compound 0.3 µM, first compound 0.00316 µM): 91.7%
- viability, T/C (second compound 0.3 µM, first compound 0.01 µM): 72.5%
- viability, T/C [31]: 44.3%
- viability, T/C [32]: 21.3%

SMILES: C[C@@H](NC(=O)c1ncnc(N)c1Cl)c1ncc(C(=O)Nc2cc(C(F)(F)F)c(Cl)cn2)s1 + CCn1c(-c2cccnc2C(C)OC)c2c3cc(ccc31)N1CCOC(CC(NC(=O)C(C(C)C)N(C)C(=O)C3(F)CCN(C(=O)C#CC(C)(C)N(C)C)CC3)C(=O)N3CCCC(N3)C(=O)OCC(C)(C)C2)C1
- IC50 (second compound 0.000949 µM): > 10000 nM
- IC50 (second compound 0.003 µM): > 10000 nM
- IC50 (second compound 0.00949 µM): > 10000 nM
- IC50 (second compound 0.03 µM): > 10000 nM
- IC50 (second compound 0.0949 µM): > 10000 nM
- IC50 (second compound 0.3 µM): > 10000 nM
- viability, T/C [1]: 103%
- viability, T/C [2]: 85.1%
- viability, T/C [3]: 87.7%
- viability, T/C [4]: 96.6%
- viability, T/C [5]: 104%
- viability, T/C [6]: 80.5%
- viability, T/C [7]: 91.5%
- viability, T/C [8]: 84.5%
- viability, T/C [9]: 90.7%
- viability, T/C [10]: 90.1%
- viability, T/C [11]: 92.9%
- viability, T/C [12]: 95.1%
- viability, T/C [13]: 101%
- viability, T/C [14]: 95.3%
- viability, T/C [15]: 93.1%
- viability, T/C [16]: 105%
- viability, T/C [17]: 94.6%
- viability, T/C [18]: 82.6%
- viability, T/C [19]: 93.8%
- viability, T/C [20]: 95.4%
- viability, T/C [21]: 89.2%
- viability, T/C [22]: 85.8%
- viability, T/C [23]: 95.7%
- viability, T/C [24]: 72.5%
- viability, T/C [25]: 102%
- viability, T/C [26]: 116%
- viability, T/C [27]: 104%
- viability, T/C [28]: 113%
- viability, T/C [29]: 110%
- viability, T/C [30]: 76.3%
- viability, T/C [31]: 109%
- viability, T/C [32]: 120%
- viability, T/C [33]: 114%
- viability, T/C [34]: 112%
- viability, T/C [35]: 103%
- viability, T/C [36]: 57%
